Measured values: ChEMBL document CHEMBL5113525, “Discovery of the Novel 1H-Pyrrolo[2,3-b]pyridine Derivative as a Potent Type II CDK8 Inhibitor against Colorectal Cancer” (J Med Chem, 2022)
The source made the active and inactive calls. No cut-off for these calls is given here.

How the values were obtained:
[1] = target: Catenin beta-1 (Homo sapiens) (UniProt P35222); assay: Inhibition of beta-catenin in human HCT-116 cells assessed as accumulation in cytoplasm incubated for 24 hrs by DAPI staining based immunofluorescence assay; assay type: cell-based
[2] = AUC(0 to infinity) in Sprague-Dawley rat at 10 mg/kg, po measured upto 12 hrs by LC-MS/MS analysis; assay type: ADME, organism-based; parameters: dose 10 mg/kg, time < 12 hrs, route po; details: in vivo
[3] = AUC(0 to infinity) in Sprague-Dawley rat at 5 mg/kg, iv measured upto 12 hrs by LC-MS/MS analysis; assay type: ADME, organism-based; parameters: time < 12 hrs, dose 5 mg/kg, route iv; details: in vivo
[4] = Oral bioavailability in Sprague-Dawley rat at 10 mg/kg measured upto 12 hrs by LC-MS/MS analysis; assay type: ADME, organism-based; details: in vivo
[5] = target: Aurora kinase C (Homo sapiens) (UniProt Q9UQB9); assay: Inhibition of human Aurora C at 1 uM relative to control
Sequence of Aurora kinase C (Homo sapiens) (Q9UQB9 whole entry): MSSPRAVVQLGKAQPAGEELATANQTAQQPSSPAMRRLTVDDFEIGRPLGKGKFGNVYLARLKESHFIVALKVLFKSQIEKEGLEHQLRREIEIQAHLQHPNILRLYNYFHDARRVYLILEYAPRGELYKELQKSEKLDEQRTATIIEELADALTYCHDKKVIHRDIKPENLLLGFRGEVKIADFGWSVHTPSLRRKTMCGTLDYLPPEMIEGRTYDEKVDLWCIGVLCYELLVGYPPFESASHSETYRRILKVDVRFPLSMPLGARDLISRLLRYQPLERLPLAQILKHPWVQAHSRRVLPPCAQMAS

[6] = target: Serine/threonine-protein kinase B-raf (Homo sapiens) (UniProt P15056); assay: Inhibition of human BRAF at 1 uM relative to control
Sequence of Serine/threonine-protein kinase B-raf (Homo sapiens) (P15056 whole entry): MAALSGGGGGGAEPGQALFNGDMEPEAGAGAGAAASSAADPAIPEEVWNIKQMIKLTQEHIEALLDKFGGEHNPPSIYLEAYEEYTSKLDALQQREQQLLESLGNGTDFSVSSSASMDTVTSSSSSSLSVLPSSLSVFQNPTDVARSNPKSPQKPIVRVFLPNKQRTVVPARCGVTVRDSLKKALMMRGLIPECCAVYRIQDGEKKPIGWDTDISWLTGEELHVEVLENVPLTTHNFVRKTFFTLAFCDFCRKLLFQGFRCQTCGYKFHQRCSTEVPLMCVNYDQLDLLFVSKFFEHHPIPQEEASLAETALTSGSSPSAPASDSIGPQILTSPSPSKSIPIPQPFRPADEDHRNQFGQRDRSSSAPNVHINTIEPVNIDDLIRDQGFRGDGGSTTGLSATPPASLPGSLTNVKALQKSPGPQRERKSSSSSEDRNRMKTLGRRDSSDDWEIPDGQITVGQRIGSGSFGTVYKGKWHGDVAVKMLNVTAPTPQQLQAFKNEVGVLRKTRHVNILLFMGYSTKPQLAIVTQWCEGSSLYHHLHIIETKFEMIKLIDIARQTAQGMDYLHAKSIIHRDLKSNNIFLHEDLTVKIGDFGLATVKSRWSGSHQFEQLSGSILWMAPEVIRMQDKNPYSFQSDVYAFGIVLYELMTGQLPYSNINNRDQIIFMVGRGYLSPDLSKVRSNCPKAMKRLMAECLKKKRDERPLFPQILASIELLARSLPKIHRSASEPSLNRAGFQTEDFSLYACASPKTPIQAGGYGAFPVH

[7] = target: Dual specificity protein kinase CLK1 (Homo sapiens) (UniProt P49759); assay: Inhibition of human CLK1 at 1 uM relative to control
[8] = target: Dual specificity protein kinase CLK2 (Homo sapiens) (UniProt P49760); assay: Inhibition of human CLK2 at 1 uM relative to control
[9] = target: Citron Rho-interacting kinase (Homo sapiens) (UniProt O14578); assay: Inhibition of human CRIK at 1 uM relative to control
[10] = target: Receptor-type tyrosine-protein kinase FLT3 (Homo sapiens) (UniProt P36888); assay: Inhibition of human FLT3 at 1 uM relative to control
Sequence of Receptor-type tyrosine-protein kinase FLT3 (Homo sapiens) (P36888 whole entry): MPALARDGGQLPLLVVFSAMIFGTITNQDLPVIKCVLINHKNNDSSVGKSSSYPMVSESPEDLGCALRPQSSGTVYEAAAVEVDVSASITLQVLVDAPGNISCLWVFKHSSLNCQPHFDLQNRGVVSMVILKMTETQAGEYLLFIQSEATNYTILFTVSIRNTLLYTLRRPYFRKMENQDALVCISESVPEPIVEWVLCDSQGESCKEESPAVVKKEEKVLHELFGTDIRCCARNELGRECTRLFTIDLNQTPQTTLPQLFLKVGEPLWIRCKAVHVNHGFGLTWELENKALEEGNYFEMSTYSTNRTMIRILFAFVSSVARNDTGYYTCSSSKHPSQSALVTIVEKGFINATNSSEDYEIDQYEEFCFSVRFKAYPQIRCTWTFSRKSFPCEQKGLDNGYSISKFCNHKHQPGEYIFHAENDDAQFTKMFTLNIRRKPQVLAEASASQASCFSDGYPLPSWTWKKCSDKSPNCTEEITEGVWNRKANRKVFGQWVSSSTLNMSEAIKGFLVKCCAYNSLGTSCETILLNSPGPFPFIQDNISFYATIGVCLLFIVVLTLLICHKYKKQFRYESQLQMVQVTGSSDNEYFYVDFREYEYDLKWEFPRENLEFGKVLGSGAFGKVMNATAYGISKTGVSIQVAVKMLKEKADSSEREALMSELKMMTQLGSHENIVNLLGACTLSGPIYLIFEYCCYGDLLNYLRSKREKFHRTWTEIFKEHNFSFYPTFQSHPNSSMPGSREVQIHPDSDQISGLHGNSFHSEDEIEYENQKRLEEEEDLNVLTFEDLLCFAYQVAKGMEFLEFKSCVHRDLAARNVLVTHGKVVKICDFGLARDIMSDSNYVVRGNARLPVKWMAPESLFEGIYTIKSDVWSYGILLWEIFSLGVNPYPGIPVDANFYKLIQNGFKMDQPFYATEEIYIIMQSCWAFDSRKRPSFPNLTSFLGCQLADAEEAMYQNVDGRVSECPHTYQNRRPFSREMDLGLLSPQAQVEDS

[11] = target: Tyrosine-protein kinase JAK1 (Homo sapiens) (UniProt P23458); assay: Inhibition of human JAK1 at 1 uM relative to control
[12] = target: Tyrosine-protein kinase JAK3 (Homo sapiens) (UniProt P52333); assay: Inhibition of human JAK3 at 1 uM relative to control
Sequence of Tyrosine-protein kinase JAK3 (Homo sapiens) (P52333 whole entry): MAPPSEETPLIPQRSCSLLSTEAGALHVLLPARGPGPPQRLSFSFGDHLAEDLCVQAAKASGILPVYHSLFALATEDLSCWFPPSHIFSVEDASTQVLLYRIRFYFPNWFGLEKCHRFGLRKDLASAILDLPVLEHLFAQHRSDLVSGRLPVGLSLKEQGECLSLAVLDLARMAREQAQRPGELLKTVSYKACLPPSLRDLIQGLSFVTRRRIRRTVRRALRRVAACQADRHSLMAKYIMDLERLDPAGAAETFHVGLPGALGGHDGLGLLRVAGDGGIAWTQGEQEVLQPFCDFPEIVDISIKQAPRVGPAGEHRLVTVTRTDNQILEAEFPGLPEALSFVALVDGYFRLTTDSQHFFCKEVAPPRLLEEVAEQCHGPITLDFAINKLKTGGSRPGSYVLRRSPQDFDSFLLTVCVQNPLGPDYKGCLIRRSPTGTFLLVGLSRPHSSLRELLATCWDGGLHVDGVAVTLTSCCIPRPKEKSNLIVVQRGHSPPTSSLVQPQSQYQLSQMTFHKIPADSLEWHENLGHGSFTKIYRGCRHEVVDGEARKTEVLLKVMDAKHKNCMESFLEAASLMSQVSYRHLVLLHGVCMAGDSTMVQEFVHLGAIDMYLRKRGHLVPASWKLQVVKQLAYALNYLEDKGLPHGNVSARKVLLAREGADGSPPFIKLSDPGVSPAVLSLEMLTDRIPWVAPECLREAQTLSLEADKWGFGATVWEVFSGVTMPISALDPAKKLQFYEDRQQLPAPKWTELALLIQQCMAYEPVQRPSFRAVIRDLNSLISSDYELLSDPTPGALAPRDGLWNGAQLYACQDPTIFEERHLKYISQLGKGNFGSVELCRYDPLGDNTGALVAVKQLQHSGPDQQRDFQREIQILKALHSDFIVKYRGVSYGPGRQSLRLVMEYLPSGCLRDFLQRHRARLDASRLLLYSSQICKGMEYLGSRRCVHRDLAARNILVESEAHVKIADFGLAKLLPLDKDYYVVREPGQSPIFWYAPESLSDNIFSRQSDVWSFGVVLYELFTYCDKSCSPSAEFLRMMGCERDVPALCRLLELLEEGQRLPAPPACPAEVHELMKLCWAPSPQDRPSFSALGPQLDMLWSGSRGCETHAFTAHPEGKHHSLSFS

[13] = target: Tyrosine-protein kinase Mer (Homo sapiens) (UniProt Q12866); assay: Inhibition of human MER at 1 uM relative to control
Sequence of Tyrosine-protein kinase Mer (Homo sapiens) (Q12866 whole entry): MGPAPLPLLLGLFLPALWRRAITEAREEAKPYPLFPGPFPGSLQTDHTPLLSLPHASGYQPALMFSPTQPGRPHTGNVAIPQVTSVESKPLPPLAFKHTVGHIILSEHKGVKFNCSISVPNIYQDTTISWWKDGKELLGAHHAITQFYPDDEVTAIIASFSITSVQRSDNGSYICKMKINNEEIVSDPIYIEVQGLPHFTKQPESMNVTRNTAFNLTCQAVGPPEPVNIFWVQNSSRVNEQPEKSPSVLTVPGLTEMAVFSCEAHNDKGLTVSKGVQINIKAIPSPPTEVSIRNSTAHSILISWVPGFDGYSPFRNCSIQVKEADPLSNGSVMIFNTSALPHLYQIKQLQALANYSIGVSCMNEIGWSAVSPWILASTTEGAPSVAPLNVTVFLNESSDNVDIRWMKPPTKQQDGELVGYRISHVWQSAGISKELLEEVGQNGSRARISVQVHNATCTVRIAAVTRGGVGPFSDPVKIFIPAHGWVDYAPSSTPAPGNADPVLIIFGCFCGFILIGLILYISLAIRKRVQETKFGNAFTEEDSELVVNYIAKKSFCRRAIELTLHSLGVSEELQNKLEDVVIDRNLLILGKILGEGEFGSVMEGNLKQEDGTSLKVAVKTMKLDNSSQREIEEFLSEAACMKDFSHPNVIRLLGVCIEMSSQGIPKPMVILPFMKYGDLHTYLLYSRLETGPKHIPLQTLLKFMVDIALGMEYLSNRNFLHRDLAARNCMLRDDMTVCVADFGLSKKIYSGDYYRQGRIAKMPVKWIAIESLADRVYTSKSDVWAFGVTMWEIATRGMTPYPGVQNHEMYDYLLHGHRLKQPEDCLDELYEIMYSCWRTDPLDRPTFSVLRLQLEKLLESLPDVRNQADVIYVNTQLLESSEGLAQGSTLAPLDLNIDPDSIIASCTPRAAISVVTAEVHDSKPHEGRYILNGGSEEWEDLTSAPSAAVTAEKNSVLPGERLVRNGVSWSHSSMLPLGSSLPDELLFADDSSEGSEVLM

[14] = target: Mitogen-activated protein kinase kinase kinase 9 (Homo sapiens) (UniProt P80192); assay: Inhibition of human MLK1 at 1 uM relative to control
[15] = target: Mitogen-activated protein kinase kinase kinase 10 (Homo sapiens) (UniProt Q02779); assay: Inhibition of human MLK2 at 1 uM relative to control
[16] = target: MAP kinase-interacting serine/threonine-protein kinase 2 (Homo sapiens) (UniProt Q9HBH9); assay: Inhibition of human MNK2 at 1 uM relative to control
[17] = target: 3-phosphoinositide-dependent protein kinase 1 (Homo sapiens) (UniProt O15530); assay: Inhibition of human PDK1 at 1 uM relative to control
Sequence of 3-phosphoinositide-dependent protein kinase 1 (Homo sapiens) (O15530 whole entry, looked up): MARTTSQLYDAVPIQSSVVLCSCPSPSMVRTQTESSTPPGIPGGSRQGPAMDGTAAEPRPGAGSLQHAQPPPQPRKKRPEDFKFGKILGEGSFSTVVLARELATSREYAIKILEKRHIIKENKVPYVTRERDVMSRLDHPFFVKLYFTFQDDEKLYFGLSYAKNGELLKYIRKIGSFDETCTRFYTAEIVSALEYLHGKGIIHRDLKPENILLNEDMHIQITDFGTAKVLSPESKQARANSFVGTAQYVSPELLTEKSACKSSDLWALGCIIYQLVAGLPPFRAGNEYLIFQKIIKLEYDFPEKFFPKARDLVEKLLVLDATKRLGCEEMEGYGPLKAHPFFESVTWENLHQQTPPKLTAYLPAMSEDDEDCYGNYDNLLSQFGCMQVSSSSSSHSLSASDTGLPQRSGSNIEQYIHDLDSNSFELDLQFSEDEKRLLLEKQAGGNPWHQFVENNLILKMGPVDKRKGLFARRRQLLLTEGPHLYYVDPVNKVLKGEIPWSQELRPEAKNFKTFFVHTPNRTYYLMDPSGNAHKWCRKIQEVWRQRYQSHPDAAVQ

Q: With `Cc1ccc(NC(=O)CCc2cccc(-c3cnc4[nH]ccc4c3)c2)cc1C(F)(F)F` as the compound, how does the inhibition [1] read?
A: Its inhibition is “Active”.

Q: And the AUC(0-inf) [2]?
A: The AUC(0-inf) was 784 ng·h/mL.

Q: What about the AUC [3] of the same compound?
A: The AUC was 983.09 ng·h/mL.

Q: What about the bioavailability [4] of the same compound?
A: The bioavailability was 39.8%.

Q: What about the inhibition [5] of the same compound?
A: The inhibition was 8%.

Q: And the inhibition [6]?
A: The inhibition was 15%.

Q: What about the inhibition [7] of the same compound?
A: The inhibition was 10%.

Q: And the inhibition [8]?
A: The inhibition was 9%.

Q: What about the inhibition [9] of the same compound?
A: The inhibition was 1%.

Q: And the inhibition [10]?
A: Its inhibition is 48%.

Q: What about the inhibition [11] of the same compound?
A: Its inhibition is 9%.

Q: And the inhibition [12]?
A: The inhibition was 10%.

Q: And the inhibition [13]?
A: The inhibition was 30%.

Q: What about the inhibition [14] of the same compound?
A: The inhibition was 7%.

Q: What about the inhibition [15] of the same compound?
A: The inhibition was 5%.

Q: What about the inhibition [16] of the same compound?
A: Its inhibition is 10%.

Q: And the inhibition [17]?
A: The inhibition was 0%.
